Results reported in ChEMBL document CHEMBL3885881, “DrugMatrix”.

Species: Rattus norvegicus
Experiment: DrugMatrix - Regimen: Daily Repeat
Format: toxicity, organism-based, Sprague-Dawley
Design: regimen Daily Repeat, gender Male, age 6-8 weeks
Details: in vivo, po, route oral GAVAGE, vehicle .5 % CMC; for ABSOLUTE BASOPHIL / ABSOLUTE EOSINOPHIL / ABSOLUTE LYMPHOCYTE / ABSOLUTE MONOCYTE / ABSOLUTE SEGMENTED NEUTROPHIL / BASOPHIL / EOSINOPHIL / ERYTHROCYTE COUNT / HEMATOCRIT / HEMOGLOBIN / LEUKOCYTE COUNT / LYMPHOCYTE / MEAN CORPUSCULAR HEMOGLOBIN / MEAN CORPUSCULAR HEMOGLOBIN CONCENTRATION / MEAN CORPUSCULAR VOLUME / MONOCYTE / NEUTROPHIL / NUCLEATED RED BLOOD CELLS / PLATELET COUNT: tissue Blood; for ALANINE AMINOTRANSFERASE / ALBUMIN / ALKALINE PHOSPHATASE / ASPARTATE AMINOTRANSFERASE / BLOOD UREA NITROGEN / CARBON DIOXIDE / CHLORIDE / CHOLESTEROL / CREATINE PHOSPHOKINASE / CREATININE / GLUCOSE / LACTATE DEHYDROGENASE / LIPASE / PHOSPHORUS / POTASSIUM / SODIUM / TOTAL BILIRUBIN / TOTAL PROTEIN / URIC ACID: tissue Plasma
[1] = 0 mg/kg, 72 h, dose level Control, time 3 day
[2] = 0 mg/kg, 120 h, dose level Control, time 5 day
[3] = 44 mg/kg, 72 h, dose level Low, time 3 day

Brc1ccccc1 [BROMOBENZENE]
ABSOLUTE BASOPHIL [1]: 0 CELLS/uL
ABSOLUTE EOSINOPHIL [1]: 15.17 CELLS/uL
ABSOLUTE LYMPHOCYTE [1]: 10149.83 CELLS/uL
ABSOLUTE MONOCYTE [1]: 193.33 CELLS/uL
ABSOLUTE SEGMENTED NEUTROPHIL [1]: 1575 CELLS/uL
BASOPHIL [1]: 0%
EOSINOPHIL [1]: 0.17%
ERYTHROCYTE COUNT [1]: 5.53 x10E6/uL
HEMATOCRIT [1]: 34.7%
HEMOGLOBIN [1]: 12.78 G/DL
LEUKOCYTE COUNT [1]: 11.93 x10E3/uL
LYMPHOCYTE [1]: 85.5%
MEAN CORPUSCULAR HEMOGLOBIN [1]: 23.15 pg
MEAN CORPUSCULAR HEMOGLOBIN CONCENTRATION [1]: 36.9 G/DL
MEAN CORPUSCULAR VOLUME [1]: 62.82 fL
MONOCYTE [1]: 1.5%
NEUTROPHIL [1]: 12.83%
NUCLEATED RED BLOOD CELLS [1]: 0.5 /100WBC
PLATELET COUNT [1]: 994.17 x10E3/uL
ALANINE AMINOTRANSFERASE [1]: 48.17 u/L
ALBUMIN [1]: 4.37 G/DL
ALKALINE PHOSPHATASE [1]: 436.5 u/L
ASPARTATE AMINOTRANSFERASE [1]: 83.17 u/L
BLOOD UREA NITROGEN [1]: 14.67 mg/dL
CARBON DIOXIDE [1]: 30.83 mmol/L
CHLORIDE [1]: 99.17 MEQ/L
CHOLESTEROL [1]: 86.33 mg/dL
CREATINE PHOSPHOKINASE [1]: 243.33 u/L
CREATININE [1]: 0.25 mg/dL
GLUCOSE [1]: 158 mg/dL
LACTATE DEHYDROGENASE [1]: 262.33 u/L
LIPASE [1]: 11 u/L
PHOSPHORUS [1]: 12.07 mg/dL
POTASSIUM [1]: 6.52 MEQ/L
SODIUM [1]: 142.45 MEQ/L
TOTAL BILIRUBIN [1]: 0.17 mg/dL
TOTAL PROTEIN [1]: 6.25 G/DL
URIC ACID [1]: 1.42 mg/dL
ABSOLUTE BASOPHIL [2]: 0 CELLS/uL
ABSOLUTE EOSINOPHIL [2]: 0 CELLS/uL
ABSOLUTE LYMPHOCYTE [2]: 10076.67 CELLS/uL
ABSOLUTE MONOCYTE [2]: 124 CELLS/uL
ABSOLUTE SEGMENTED NEUTROPHIL [2]: 966 CELLS/uL
BASOPHIL [2]: 0%
EOSINOPHIL [2]: 0%
ERYTHROCYTE COUNT [2]: 5.57 x10E6/uL
HEMATOCRIT [2]: 33.37%
HEMOGLOBIN [2]: 12.73 G/DL
LEUKOCYTE COUNT [2]: 11.17 x10E3/uL
LYMPHOCYTE [2]: 90.33%
MEAN CORPUSCULAR HEMOGLOBIN [2]: 22.9 pg
MEAN CORPUSCULAR HEMOGLOBIN CONCENTRATION [2]: 38.18 G/DL
MEAN CORPUSCULAR VOLUME [2]: 59.97 fL
MONOCYTE [2]: 1%
NEUTROPHIL [2]: 8.67%
NUCLEATED RED BLOOD CELLS [2]: 0 /100WBC
PLATELET COUNT [2]: 1078 x10E3/uL
ALANINE AMINOTRANSFERASE [2]: 37.17 u/L
ALBUMIN [2]: 4.2 G/DL
ALKALINE PHOSPHATASE [2]: 322.17 u/L
ASPARTATE AMINOTRANSFERASE [2]: 67.67 u/L
BLOOD UREA NITROGEN [2]: 14 mg/dL
CARBON DIOXIDE [2]: 27.67 mmol/L
CHLORIDE [2]: 102.17 MEQ/L
CHOLESTEROL [2]: 67.67 mg/dL
CREATINE PHOSPHOKINASE [2]: 171.83 u/L
CREATININE [2]: 0.27 mg/dL
GLUCOSE [2]: 172 mg/dL
LACTATE DEHYDROGENASE [2]: 85.33 u/L
LIPASE [2]: 8.67 u/L
PHOSPHORUS [2]: 12 mg/dL
POTASSIUM [2]: 6.09 MEQ/L
SODIUM [2]: 144.82 MEQ/L
TOTAL BILIRUBIN [2]: 0.13 mg/dL
TOTAL PROTEIN [2]: 6.07 G/DL
URIC ACID [2]: 2.13 mg/dL
ABSOLUTE BASOPHIL [3]: 0 CELLS/uL
ABSOLUTE EOSINOPHIL [3]: 0 CELLS/uL
ABSOLUTE LYMPHOCYTE [3]: 8803 CELLS/uL
ABSOLUTE MONOCYTE [3]: 197 CELLS/uL
ABSOLUTE SEGMENTED NEUTROPHIL [3]: 1233.33 CELLS/uL
BASOPHIL [3]: 0%
EOSINOPHIL [3]: 0%
ERYTHROCYTE COUNT [3]: 5.29 x10E6/uL
HEMATOCRIT [3]: 32.6%
HEMOGLOBIN [3]: 12.17 G/DL
LEUKOCYTE COUNT [3]: 10.23 x10E3/uL
LYMPHOCYTE [3]: 86.33%
MEAN CORPUSCULAR HEMOGLOBIN [3]: 23 pg
MEAN CORPUSCULAR HEMOGLOBIN CONCENTRATION [3]: 37.3 G/DL
MEAN CORPUSCULAR VOLUME [3]: 61.67 fL
MONOCYTE [3]: 2%
NEUTROPHIL [3]: 11.67%
NUCLEATED RED BLOOD CELLS [3]: 0.33 /100WBC
PLATELET COUNT [3]: 1006 x10E3/uL
ALANINE AMINOTRANSFERASE [3]: 42.67 u/L
ALBUMIN [3]: 4.37 G/DL
ALKALINE PHOSPHATASE [3]: 351 u/L
ASPARTATE AMINOTRANSFERASE [3]: 74 u/L
BLOOD UREA NITROGEN [3]: 14 mg/dL
CARBON DIOXIDE [3]: 30 mmol/L
CHLORIDE [3]: 100.67 MEQ/L
CHOLESTEROL [3]: 85 mg/dL
CREATINE PHOSPHOKINASE [3]: 192.67 u/L
CREATININE [3]: 0.21 mg/dL
GLUCOSE [3]: 153.33 mg/dL
LACTATE DEHYDROGENASE [3]: 151.33 u/L
LIPASE [3]: 11.33 u/L
PHOSPHORUS [3]: 12.27 mg/dL
POTASSIUM [3]: 6.3 MEQ/L
SODIUM [3]: 144.5 MEQ/L
TOTAL BILIRUBIN [3]: 0.1 mg/dL
TOTAL PROTEIN [3]: 6.13 G/DL
URIC ACID [3]: 1.47 mg/dL
